The Km is the substrate concentration at which the rate is half of its maximum.

“Also recorded” adds a separate entry of the source.

Common to all, as to format: biochemical, bovine
Test [1] concerns poly(A)-specific 3′-exonuclease activity. Nature of the test: Conditions for the in-vitro deadenylation: ions and spermidine (1D TLC). To be noted: for influence on deadenylation activity / decrease of activity as compared with the activity in the presence of Mg2+: Poly(A) Sepharose fraction; for influence on deadenylation activity: tail-labeled L3(A30) RNA; for decrease of activity as compared with the activity in the presence of Mg2+: 1 mM divalent ion, L3(A30) RNA. As for the experimental part: (§1) The test conditions for the in-vitro deadenylation were as follows: 1 mM MgCl2, 2.5% (w/v) poly(vinyl alcohol) (Sigma P-8136, Mw 10,000), 100 mM KCl, 0.15 Unit RNAguard, from 5 to 20 fmol of RNA substrate, from 20 to 48% (v/v) buffer (20 mM HEPES (KOH), 0.2 mM EDTA, 0.5 mM DTT, 25% glycerol, pH 7) and the appropriate protein fraction (Åström, J. et al. (1992), see above). The reaction volume was 15 or 25 μl and the incubations were carried out at 30° C. The reactions were then terminated and RNA was purified as described in Moore, C. L. & Sharpe, P. A. (1985), see above. The RNA was analyzed by electrophoresis in 10% polyacrylamide (19:1 acrylamide/bisacrylamide)—7 M urea gels, followed by autoradiography of the resulting gels.
(§2) The deadenylation activity was quantified as follows: L3(A30) RNA substrate, labeled with [α^32P]ATP, was incubated in an in-vitro deadenylation reaction. The reaction products were analyzed by 1D TLC using mobile solvent III (0.75 M K2HPO4, pH 3.5 (H3PO4)). The resulting PEI-Cellulose F plate was dried and scanned in a 400 S Phosphorimager (Molecular Dynamics). The fractions containing released [α^32P]AMP were determined. The quantity, in mol, of released AMP was calculated on the basis of the known specific activity of [α^32P]AMP in the RNA substrate. One unit of deadenylation activity corresponds to the release of 1 pmol of AMP/minute.
The conditions for measuring poly(A) deadenylation activity in accordance with the above-described deadenylation test were determined using Poly(A) Sepharose fractions as the enzyme source and poly(A) tail-labeled L3(A30) RNA as the substrate. The activity was measured in terms of the release of the mononucleotides in the 1D TLC test (see above). The requirement of monovalent (potassium and sodium) and divalent (magnesium, manganese, zinc and calcium) ions for this was investigated.

Test [2] shares this test system. Nature of the test: Substrate specificity: Km and Vmax for homopolymer-tailed RNA substrates (Lineweaver-Burke plot). To be noted: Poly(A) Sepharose fraction; tail-labeled RNA substrates. As for the experimental part:
as §1, §2
The RNA substrate specificity of the activity was investigated in two experiments. In a first experiment, the RNA substrates L3(A30), ML45(U30), ML40(C32) and ML43(G30), whose homopolymeric tails had been radioactively labeled, were incubated in an in-vitro deadenylation test (see above). The release of radioactive mononucleotides was measured in the 1D TLC test (see above). The measurement results were used to calculate the Km and Vmax values for each RNA substrate using the Lineweaver-Burke plot (see Table II). In a second experiment, the substrate specificity was measured by incubating RNA substrates containing internal poly(A) segments, followed by plasmid-encoded RNA sequences of increasing length, with Poly(A) Sepharose fractions in an in-vitro deadenylation test. […] It follows from this that RNA tails composed of adenosine residues are the preferred substrate and that only 3′ end-located poly(A) tails are effectively degraded.

Test [3] shares this test system. Nature of the test: Kinetics of the nuclease activity (time course, added poly(A)). To be noted: 20 minutes, 0.5 μl Poly(A) Sepharose fraction, L3(A30) RNA. How it is done:
FIGS. 5A-C show the ongoing degradation of poly(A). The Poly(A) Sepharose fraction was incubated, under in-vitro deadenylation conditions, with X fmol of the L3(A30) RNA substrate which had been labeled with [α-^32P]UTP during in-vitro transcription. The reaction products were fractionated in a 10% polyacrylamide:bisacrylamide 19:1-7 M urea gel. S and P indicate the migration sites of the RNA substrate (S) and the product (P). […] The indicated quantities of poly(A) in ng were added to the reactions.
The test conditions for the in-vitro deadenylation were as follows: 1 mM MgCl2, 2.5% (w/v) poly(vinyl alcohol) (Sigma P-8136, Mw 10,000), 100 mM KCl, 0.15 Unit RNAguard, from 5 to 20 fmol of RNA substrate, from 20 to 48% (v/v) buffer (20 mM HEPES (KOH), 0.2 mM EDTA, 0.5 mM DTT, 25% glycerol, pH 7) and the appropriate protein fraction (Åström, J. et al. (1992), see above). […] The RNA was analyzed by electrophoresis in 10% polyacrylamide (19:1 acrylamide/bisacrylamide)—7 M urea gels, followed by autoradiography of the resulting gels.
In order to determine whether the nuclease activity degrades RNA substrates in a progressive or distributive manner, the kinetics was first of all determined in an in-vitro deadenylation reaction in the presence of 0.5 μl of a Poly(A) Sepharose fraction and x fmol of L3(A30) RNA substrate which had been labeled overall. […]

For the compound `[K+]` [potassium ions], the “influence on deadenylation activity” value in test [1] is on record as “activity is higher in the presence of potassium ions than in the presence of sodium ions”.
On the same count and under the same terms, in the case of `NCCCCNCCCN` [spermidine] it was “no influence on the activity; also recorded: if anything, it is inhibited both at low and at high salt concentrations”.
With poly(U), the Km in test [2] was determined as 0.02 µM.
The same measure, in the same setting: with poly(C) the figure was 0.01 µM.
With `[Mn+2]` [Mn^2+], in test [1], the “decrease of activity as compared with the activity in the presence of Mg2+” value was determined as 17% and the “influence on deadenylation activity” value is on record as “also active in the presence of Mn^2+”.
With poly(A), the “effect of added poly(A) on the deadenylation reaction” value in test [3] is “inhibits the reaction”. Further, the Km in test [2] was 0.01 µM.
For poly(G), the Michaelis constant (Km) in test [2] was 0.007 µM.
Take `[Zn+2]` [Zn^2+]: in test [1], the “decrease of activity as compared with the activity in the presence of Mg2+” value is 2%.
Still for that read-out and setting: with `[Ca+2]` [Ca^2+] the figure was 0.7%.
Consider `[Mg+2]` [magnesium ions], for which, in test [1], the “optimum concentration of ion for deadenylation activity” value is on record as 1 mM.
